According to PubChem BioAssay (NCI):
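Five concentrations, 48 hours, 96-well plates. Here, GI50 denotes the concentration required for 50% inhibition of growth. At the TGI there is no net growth.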

Columns and labels:
Experiment in all cases: NCI tumour cell line growth inhibition, 48 h
CAKI-1 renal = tested on: CAKI-1 renal
K-562 leukemia = tested on: K-562 leukemia
COLO 205 colon = tested on: COLO 205 colon
A498 renal = tested on: A498 renal
HT29 colon = tested on: HT29 colon
NCI-H226 lung = tested on: NCI-H226 lung
UACC-257 melanoma = tested on: UACC-257 melanoma
HCT-116 colon = tested on: HCT-116 colon
NCI-H460 lung = tested on: NCI-H460 lung

| SMILES | TGI (CAKI-1 renal) [µM] | TGI (K-562 leukemia) [µM] | TGI (COLO 205 colon) [µM] | TGI (A498 renal) [µM] | TGI (HT29 colon) [µM] | TGI (NCI-H226 lung) [µM] | TGI (UACC-257 melanoma) [µM] | TGI (HCT-116 colon) [µM] | TGI (NCI-H460 lung) [µM] | GI50 (CAKI-1 renal) [µM] | GI50 (K-562 leukemia) [µM] | GI50 (COLO 205 colon) [µM] | GI50 (NCI-H460 lung) [µM] | GI50 (A498 renal) [µM] | GI50 (HT29 colon) [µM] | GI50 (UACC-257 melanoma) [µM] | GI50 (NCI-H226 lung) [µM] | GI50 (HCT-116 colon) [µM] |
| --- | --- | --- | --- | --- | --- | --- | --- | --- | --- | --- | --- | --- | --- | --- | --- | --- | --- | --- |
| CN1CC2(CCCCC2)C(O)C12C=CCCC2 (stereo not drawn) | > 100 | > 100 | > 100 | > 100 | > 100 | > 100 | > 100 | – | – | – | – | – | – | – | – | – | – | – |
| O=c1c2ccccc2nc(-c2ccccc2)n1NCC1(O)OCC(O)C(O)C1O (stereo not drawn) | > 100 | > 100 | > 100 | > 100 | > 100 | > 100 | > 100 | > 100 | > 100 | – | – | – | – | – | – | – | – | – |
| CC(=O)[CH-]C(=O)c1ccccc1.CC(=O)[CH-]C(=O)c1ccccc1.[O]=[U+2]=[O] | > 100 | > 100 | 78.5 | 96.9 | 57.4 | – | > 100 | – | > 100 | 39.2 | 37.3 | 28.4 | 36.9 | 28.7 | 23.4 | 34.3 | – | – |
| CC(C)OP(=O)(CP(=O)(OC(C)C)OC(C)C)OC(C)C.[CH3][Sn]([Br])([Br])[Br] | > 100 | > 100 | > 100 | > 100 | > 100 | > 100 | > 100 | – | > 100 | > 100 | > 100 | > 100 | > 100 | > 100 | > 100 | > 100 | > 100 | – |
| O=C(O)c1cc(Cl)cc(NC(=O)C(Cl)Cl)c1Cl | > 100 | > 100 | > 100 | > 100 | > 100 | > 100 | > 100 | > 100 | > 100 | – | – | – | – | – | – | – | – | – |
| c1ccc2c(c1)CCCc1cc3ccccc3nc1-2 | > 100 | > 100 | > 100 | > 100 | > 100 | – | > 100 | > 100 | > 100 | – | – | – | – | – | – | – | – | – |
| COc1c(O)c(OC)c(C(=O)/C=C/c2ccccc2)c(O)c1OC | > 100 | > 100 | > 100 | – | > 100 | > 100 | > 100 | 34.5 | 45.8 | – | – | – | – | – | – | – | – | – |
| C/C(=N\N(C)C)C(CN(C)C)C(c1ccccc1)c1c(O)c2ccccc2oc1=O (stereo not drawn) | – | > 100 | > 100 | – | > 100 | > 100 | > 100 | > 100 | > 100 | – | – | – | – | – | – | – | – | – |
| CC1OC(=O)N(CCCC=C2SCCCS2)C1=O (stereo not drawn) | – | > 100 | > 100 | > 100 | > 100 | > 100 | > 100 | > 100 | > 100 | – | – | – | – | – | – | – | – | – |
| CO[C@H]1C=C[C@]23c4cc5c(cc4CN(CC2O)[C@@H]3C1)OCO5 (stereo partly drawn) | > 100 | > 100 | 17.9 | 9.66 | 39.7 | 61.3 | 42.8 | 19.3 | 36.1 | – | – | – | – | – | – | – | – | – |
| CC(C)OP(=O)(OC(C)C)C(N(C)C)P(=O)(OC(C)C)OC(C)C.[Cl][Sn]([Cl])([Cl])[c]1ccccc1 | > 100 | 5.62 | 12.5 | 89.8 | 12.8 | 9.69 | 8.95 | – | 29.6 | 3.7 | 2.26 | 2.1 | 2.15 | 14.2 | 0.923 | 2.79 | 2.05 | – |
| O=C1OCC(C(=O)c2cccc(O)c2)C1=O (stereo not drawn) | > 100 | – | > 100 | > 100 | > 100 | > 100 | > 100 | > 100 | > 100 | – | – | – | – | – | – | – | – | – |
| CC(C)c1ccc(/C=C(\NC(=O)c2ccccc2)c2nc3ccccc3[nH]2)cc1 | > 100 | > 100 | > 100 | > 100 | > 100 | > 100 | > 100 | > 100 | > 100 | – | – | – | – | – | – | – | – | – |
| Cc1nnc2n1N=C(CC(=O)c1ccc(O)cc1O)CN2N | > 100 | > 100 | 35.8 | > 100 | > 100 | – | > 100 | > 100 | > 100 | – | – | – | – | – | – | – | – | – |
| CCOC(=O)CCC1(C(=O)OC)CCCC1=O (stereo not drawn) | – | > 100 | > 100 | > 100 | > 100 | – | > 100 | > 100 | > 100 | – | – | – | – | – | – | – | – | – |
| O=C(OCc1ccccc1CN1CCOCC1)c1ccc(Br)cc1 | – | – | > 100 | > 100 | 44.2 | > 100 | > 100 | > 100 | > 100 | – | – | – | – | – | – | – | – | – |
| O=C1[C@H]2C(c3ccccc3)=NN(C(=O)c3ccccc3)[C@H]2C(=O)N1c1ccccc1 | – | > 100 | > 100 | – | > 100 | > 100 | > 100 | > 100 | > 100 | – | – | – | – | – | – | – | – | – |
| CN1CCCC1c1cccnc1.O=C(O)c1ccccc1O.O=C([O-])c1ccccc1[OH2+].O=C([O-])c1ccccc1[OH2+].O=C([O-])c1ccccc1[OH2+].[Mn+2] (stereo not drawn) | > 100 | > 100 | > 100 | > 100 | > 100 | > 100 | > 100 | > 100 | – | > 100 | > 100 | > 100 | – | > 100 | > 100 | 37.6 | > 100 | > 100 |
